One data set concerns AMPK-α (phospho-Thr172). Briefly: AMPK activation, western blot of phospho-AMPK-α in MDBK cells. The format is cell-based, Bos taurus. Conditions: for p-alpha: band intensity. As for the experimental part: MDBK cells were seeded at 1 × 10^6 cells per 6 cm dish in DMEM containing 10 % FBS. […] After 18 h cells were harvested by a rapid lysis procedure: cells were rinsed with PBS, then lysed using ice-cold buffer containing 50 mM HEPES, 1 mM EDTA, 10 % glycerol, 50 mM NaF, 5 mM sodium pyrophosphate, 1 % Triton-X100, 1 mM dithiothreitol (DTT), and a protease inhibitor cocktail (Roche). The cell lysate was centrifuged at 14,000 × g for 20 min at 4 °C and the protein concentration of the supernatant determined by bicinchoninic acid assay. The lysate was analyzed using Novex 3–12 % bis-Tris gels run in 3-(N-morpholino)propanesulfonic acid (MOPS) buffer (20 μg of protein per lane) followed by transfer to low fluorescence polyvinylidene fluoride membranes by wet transfer. Primary rabbit antibodies for AMPK-β (57C12), AMPK-α (phospho-Thr172) (40H9), and acetyl-coA carboxylase (phospho-Ser79) (Cell Signaling Technology) were incubated overnight with the membrane (1:1000 dilution) in Odyssey blocking buffer at 4 °C. A fluorescent secondary antibody was used (IRDYE800CW from LI-COR Biosciences, 1:20,000 dilution) with a LI-COR Odyssey imaging system.
A general note: In western blotting, separated proteins are transferred to a membrane and probed.

Data set [1] relates to bovine mitochondrial membranes (complexes II-III-IV). Briefly: Succinate:O2 oxidoreduction (complexes II-III-IV, complex II assay) by bovine mitochondrial membranes. The class given is biochemical, Bos taurus. Conditions: biguanide concentrations set to the IC50 values for NADH:O2 on bovine membranes; control = 100.00; n = 3. As for the experimental part: Assays were performed at 32 °C in a SpectraMax 96-well plate reader. NADH:decylubiquinone oxidoreduction by complex I at 0.5 μg mL^−1 was measured in 20 mM Tris-HCl (pH 7.2), 0.15 % soy bean asolectin (Avanti Polar Lipids), and 0.15 % 3-((3-cholamidopropyl)dimethylammonium)-1-propanesulfonate (CHAPS, Merck Chemicals Ltd), with 200 μM decylubiquinone and 200 μM NADH, and monitored using ε340–380(NADH) = 4.81 mM^−1 cm^−1 [23]. Catalysis was initiated by addition of NADH and maximal rates determined by linear regression. NADH:O2 oxidoreduction by membranes was measured similarly but using 5 μg mL^−1 membranes in 10 mM Tris-HCl (pH 7.4) and 250 mM sucrose using 200 μM NADH and supplemented with 0.15 mM horse heart cytochrome c (Sigma-Aldrich Ltd.). Succinate:O2 oxidoreduction was measured using 40 μg mL^−1 membranes in 5 mM succinate in 10 mM Tris-HCl (pH 7.4) as described previously. Control experiments included NaCl (to match the ionic strength) or DMSO, as appropriate.

Another data set has as its system mouse liver mitochondria. Briefly: ADP-stimulated rotenone-sensitive OCR in isolated mouse liver mitochondria. Further details: rotenone sensitive OCR after ADP stimulation, individual replicates / rotenone sensitive OCR after ADP stimulation, average: unit not given here. The class given is biochemical. How it is done: Complex I and mitochondrial membranes were prepared from Bos taurus (bovine) heart. Intact mitochondria were isolated from rat liver and mouse heart and liver. Membranes were prepared from mouse heart mitochondria by 5 s bursts of sonication at 4 °C and collected by centrifugation (75,000 × g, 1 h).
Isolated mitochondria were monitored using a Seahorse XF96 extracellular flux analyzer at 32 °C. Mouse heart mitochondria, and mouse and rat liver mitochondria were plated into XF96 plates at 4 and 16–20 μg per well, respectively, in 220 mM mannitol, 70 mM sucrose, 10 mM KH2PO4, 5 mM MgCl2, 1 mM EGTA, 0.2 % fatty acid-free BSA, and 2 mM HEPES (pH 7.4 at 37 °C) with 10 mM glutamate and 10 mM malate and adhered by centrifugation (2000 × g, 20 min, 4 °C). The medium was supplemented with a further 5 mM glutamate and 5 mM malate and the mitochondria incubated for 15 min. Then two baseline readings were taken before the biguanides were added at IC50/5. Biguanides were allowed to accumulate for 15–20 min before respiration was […] by the addition of 4 mM ADP. Rotenone (2 μM) was added at the end of the experiment. Data from wells with failed port injections were excluded from the analyses. The RCR values (state III versus state IV respiration) were 3.4, 4.8, and 4.6 for mouse heart, rat liver, and mouse liver, respectively.

Data set [2] is described as follows: Octanol/PBS partition coefficient, shake-flask method. The class given is physicochemical. To be noted: 32 °C, pH 7.4, n = 3. As for the experimental part:
Octanol/PBS partition coefficients were measured by the shake-flask method at 32 °C, pH 7.4.

The subject of the next data set is permeabilized 143B cells. The data set can be described thus: ADP-stimulated rotenone-sensitive OCR in permeabilized 143B cells. The class given is cell-based, human. Further details: rotenone sensitive OCR after ADP stimulation, individual replicates / rotenone sensitive OCR after ADP stimulation, average: unit not given here. As for the experimental part: For permeabilized cell experiments, cells were seeded into XF96 plates at 0.9–1.1 × 10^4 per well and incubated for 48 h at 37 °C in 5 % CO2. Then, the growth medium was exchanged for assay buffer containing 3 nM plasma membrane permeabilizer ‘PMP’ (Seahorse Biosciences Inc.), 10 mM glutamate, 10 mM malate, 220 mM mannitol, 70 mM sucrose, 10 mM KH2PO4, 5 mM MgCl2, 1 mM EGTA, 0.2 % fatty acid-free bovine serum albumin (BSA), and 2 mM HEPES (pH 7.4 at 37 °C). […] The biguanides were allowed to accumulate for 30 min, then respiration was […] by the addition of 4 mM ADP. Rotenone was added (2 μM) at the end of the experiment.
Rotenone-sensitive OCRs were calculated by subtracting the rotenone-insensitive rates (determined at the end of the experiment). OCRs were normalized by dividing by the OCR recorded immediately prior to the addition of biguanide. For rate of uptake calculations, the OCRs at time points after biguanide addition were divided by the OCRs at the same time points in control experiments. Data from wells with failed port injections were excluded from the analyses. The respiratory control ratio (RCR) values (state III versus state IV respiration) were ~11 and ~6 for permeabilized MDBK and 143B cells, respectively.

The mark [3] stands for this setting: 143B permeabilised cells, average of replicates.
[4] abbreviates: 143B permeabilised cells, replicate 1-11.

Values joined by “and” are separate entries in the source; they are usually repeats but may differ in a detail not shown here. Equal entries are not always repeated.

The logP is a log measure of how a compound divides between an organic and an aqueous phase.

Regarding `CC(C)N=C(N)N=C(N)NC(C)C` [compound 5, N-(propan-2-yl)-1-3-(propan-2-yl)carbamimidamidomethanimidamide], in the data set on AMPK-α (phospho-Thr172) (Averages of experiments 1-3, 18 hours), the “p-alpha, average normalised to control” value is reported as 1.21. In the data set on AMPK-α (phospho-Thr172) (Experiment 1, 18 hours), the “p-alpha / AMPK beta” value is listed as 0.13, the “p-alpha / AMPK beta normalised to control” value is listed as 1.05 and the p-alpha is listed as 62.5. For the same compound, in the data set with AMPK-α (phospho-Thr172) (Experiment 2, 18 hours), the “p-alpha / AMPK beta” value is recorded as 0.17, the “p-alpha / AMPK beta normalised to control” value amounted to 1.19 and the p-alpha is given as 52.5. Moreover, in the data set on AMPK-α (phospho-Thr172) (Experiment 3, 18 hours), the “p-alpha / AMPK beta” value is reported as 0.29, the “p-alpha / AMPK beta normalised to control” value is listed as 1.38 and the p-alpha is recorded as 51.1. The “Complex II assay (succinate:O2 oxidoreduction), average” value in data set [1] is given as 100.71. Further, in the data set with mouse liver mitochondria (average of replicates), the “rotenone sensitive OCR after ADP stimulation, % of control, average” value is 82.72 % of control and the “rotenone sensitive OCR after ADP stimulation, average” value came to 28.70. Moreover, in the data set on mouse liver mitochondria (replicate 1-5), the “rotenone sensitive OCR after ADP stimulation, % of control, individual replicates” value is 96.11 % of control and 71.97 % of control and 77.63 % of control and 85.15 % of control; the “rotenone sensitive OCR after ADP stimulation, individual replicates” value is 33.35 and 24.97 and 26.94 and 29.54. In data set [2], the “P (partition coefficient)” value came to 3.371 and the logP is 0.528. In the data set on permeabilized 143B cells (setting [3]), the “rotenone sensitive OCR after ADP stimulation, % of control, average” value was 45.65 % of control and the “rotenone sensitive OCR after ADP stimulation, average” value is listed as 108.98. Moreover, in the data set with permeabilized 143B cells (setting [4]), the “rotenone sensitive OCR after ADP stimulation, % of control, individual replicates” value is 36.39 % of control and 47.66 % of control and 76.44 % of control and 36.22 % of control and 38.53 % of control and 52.52 % of control and 38.52 % of control and 38.94 % of control; the “rotenone sensitive OCR after ADP stimulation, individual replicates” value is 86.86 and 113.77 and 182.47 and 86.47 and 91.97 and 125.38 and 91.96 and 92.95. Further, the “inhibition of the OCR (in words)” value in the data set with permeabilized 143B cells (permeabilized 143B cells, biguanide concentration equal to IC50) is listed as “only limited inhibition”.

The values are drawn from paper PMC4977651, “Molecular features of biguanides required for targeting of mitochondrial respiratory complex I and activation of AMP-kinase” (BMC Biology, 2016).
